Measurements: patent publication US10717742B2, “Spiro[3H-indole-3,2′-pyrrolidin]-2(1H)-one compounds and derivatives as MDM2-P53 inhibitors” (Boehringer Ingelheim International GmbH, priority 2015, dated 2020)

Target: p53-MDM2 interaction (GST-MDM2 protein aa 23-117 / biotinylated p53 wt peptide) (Homo sapiens (Human), UniProt Q00987)
Test: Mdm2-p53 Inhibition AlphaScreen
Assay type: binding
Conditions: GST-MDM2 (aa 23-117) / biotinylated p53 wt peptide
Protocol: Mdm2-p53 Inhibition AlphaScreen
15 μL of compound in 20% DMSO (serial pre-dilutions of compound are done in 100% DMSO) is pipetted to the wells of a white OptiPlate-96 (Perkin Elmer). A mix consisting of 20 nM GST-MDM2 protein (aa 23-117) and 20 nM biotinylated p53 wt peptide (encompassing aa 16-27 of wt human p53, amino acid sequence […]-Ttds-Lys-Biotin, molecular weight 2132.56 g/mol) is prepared in assay buffer (50 mM Tris/HCl pH 7.2; 120 mM NaCl; 0.1% bovine serum albumin (BSA); 5 mM dithiothreitol (DTT); 1 mM ethylenediaminetetraacetic acid (EDTA); 0.01% Tween 20). 30 μL of the mix is added to the compound dilutions and incubated for 15 min at rt while gently shaking the plate at 300 rounds per minute (rpm). Subsequently, 15 μL of premixed AlphaLISA Glutathione Acceptor Beads and AlphaScreen Streptavidin Donor Beads from PerkinElmer (in assay buffer at a concentration of 10 μg/mL each) are added and the samples are incubated for 30 min at rt in the dark (shaking 300 rpm). Afterwards, the signal is measured in a PerkinElmer Envision HIS Multilabel Reader using the AlphaScreen protocol from Perkin Elmer.
Each plate contains negative controls where biotinylated p53-peptide and GST-MDM2 are left out and replaced by assay buffer. Negative control values are entered as low basis value when using the software GraphPad Prism for calculations. Furthermore, a positive control (5% DMSO instead of test compound; with protein/peptide mix) is pipetted. Determination of IC50 values are carried out using GraphPad Prism 3.03 software (or updates thereof).

p53-MDM2 interaction (GST-MDM2 protein aa 23-117 / biotinylated p53 wt peptide), sequence (Q00987 23-117): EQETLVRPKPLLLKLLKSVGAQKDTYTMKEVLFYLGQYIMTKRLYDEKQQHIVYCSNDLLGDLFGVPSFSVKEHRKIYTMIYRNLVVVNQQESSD

For O=C(O)c1ccc2nc3n(c2c1)C[C@H]1[C@@H]3[C@H](c2cccc(Cl)c2F)[C@]2(C(=O)Nc3cc(Cl)ccc32)N1CC1CC1 [Ib-178], the IC50 was 4 nM.
COCCNC(=O)c1ccc2c(c1)nc1n2CC[C@H]2[C@@H]1[C@H](c1cccc(Cl)c1F)[C@]1(C(=O)Nc3cc(Cl)ccc31)N2CC1CC1 [Ib-216] was tested, and the IC50 was 7 nM.
O=C(O)c1ccc2c(c1)nc1n2CC[C@H]2[C@@H]1[C@H](c1cccc(Cl)c1F)[C@]1(C(=O)Nc3cc(Cl)ccc31)N2CC1CC1 [Ib-107] gave an IC50 of 2 nM.
Compound O=C(O)c1ccc2nc3n(c2c1)CC[C@H]1[C@@H]3[C@H](c2cccc(Cl)c2F)[C@]2(C(=O)Nc3cc(Cl)ccc32)N1CC1CC1 [Ib-154] has an IC50 of 3 nM.
Work on Cc1c(C(=O)O)ccc2c1nc1n2C[C@H]2[C@@H]1[C@H](c1cccc(Cl)c1F)[C@]1(C(=O)Nc3cc(Cl)ccc31)N2CC1CC1 [Ib-190] yielded an IC50 of 2 nM.
With COCc1cccc(CN2[C@H]3Cn4c(nc5cc(C(=O)O)ccc54)[C@H]3[C@H](c3cccc(Cl)c3F)[C@]23C(=O)Nc2cc(Cl)ccc23)c1 [Ib-183] the IC50 was 3 nM.
For N#CC12CC(CN3[C@H]4CCn5c(nc6cc(C(=O)O)ccc65)[C@H]4[C@H](c4cccc(Cl)c4F)[C@]34C(=O)Nc3cc(Cl)ccc34)(C1)C2 [Ib-148], the IC50 was 21 nM.
Compound COCCOCCNC(=O)c1ccc2c3n(nc2c1)[C@@H]1[C@H](C3)N(CC2CCC2)[C@@]2(C(=O)Nc3cc(Cl)ccc32)[C@H]1c1cccc(Cl)c1F [Ia-49] has an IC50 of 6 nM.
With CC(C)CCN1[C@H]2CCn3c(nc4cc(C(=O)O)ccc43)[C@H]2[C@H](c2cccc(Cl)c2F)[C@]12C(=O)Nc1cc(Cl)ccc12 [Ib-119] the IC50 was 12 nM.
For O=C(O)c1ccc2c(c1)nc1n2C[C@H]2[C@@H]1[C@H](c1cccc(Cl)c1F)[C@]1(C(=O)Nc3cc(Cl)ccc31)N2CC1CC1 [Ib-175], the IC50 was 3 nM.
CCOc1cccc(CN2[C@H]3CCn4c(nc5cc(C(=O)O)ccc54)[C@H]3[C@H](c3cccc(Cl)c3F)[C@]23C(=O)Nc2nc(Cl)ccc23)c1 [Ib-173] was tested, and the IC50 was 7 nM.
With Cc1c(C(=O)O)ccn2c3c(nc12)[C@@H]1[C@H](C3)N(CC2CC2)[C@@]2(C(=O)Nc3cc(Cl)ccc32)[C@H]1c1ccnc(Cl)c1F [Ic-23] the IC50 was 6 nM.
In the case of CCN1[C@H]2Cc3c4ccc(C(=O)N5CCCCC5)cc4nn3[C@H]2[C@H](c2cccc(Cl)c2F)[C@]12C(=O)Nc1cc(Cl)ccc12 [Ia-52], the IC50 is reported as 69 nM.
Compound CC(C)(O)CNC(=O)c1ccc2c(c1)nc1n2CC[C@H]2[C@@H]1[C@H](c1cccc(Cl)c1F)[C@]1(C(=O)Nc3cc(Cl)ccc31)N2CC1CC1 [Ib-213] has an IC50 of 7 nM.
In the case of O=C(O)c1cc2nc3n(c2cc1F)CC[C@H]1[C@@H]3[C@H](c2cccc(Cl)c2F)[C@]2(C(=O)Nc3cc(Cl)ccc32)N1CC1CC1 [Ib-163], the IC50 is reported as 2 nM.
Compound Cc1c(C(=O)N(C)C)ccn2c3c(nc12)[C@@H]1[C@H](C3)N(CC2CC2)[C@@]2(C(=O)Nc3cc(Cl)ccc32)[C@H]1c1ccnc(Cl)c1F [Ic-29] has an IC50 of 10 nM.
For NC(=O)c1ccc2nc3n(c2c1)CC[C@H]1[C@@H]3[C@H](c2cccc(Cl)c2F)[C@]2(C(=O)Nc3cc(Cl)ccc32)N1CC1CC1 [Ib-238], the IC50 was 6 nM.
O=C(O)c1ccc2c(c1)nc1n2C[C@H]2[C@@H]1[C@H](c1ccc(Cl)s1)[C@]1(C(=O)Nc3cc(Cl)ccc31)N2CC1CC1 [Ib-202] was tested, and the IC50 was 7 nM.
Work on CCCN1[C@H]2CCn3c(nc4cc(C(=O)O)ccc43)[C@H]2[C@H](c2cccc(Cl)c2F)[C@]12C(=O)Nc1cc(Cl)ccc12 [Ib-113] yielded an IC50 of 4 nM.
For Cc1c(C(=O)O)ccc2c1nc1n2C[C@H]2[C@@H]1[C@H](c1cccc(Cl)c1F)[C@]1(C(=O)Nc3cc(Cl)ccc31)N2CC1CC1 [Ib-189], the IC50 was 3 nM.
With COc1cccc(CCN2[C@H]3CCn4c(nc5cc(C(=O)O)ccc54)[C@H]3[C@H](c3cccc(Cl)c3F)[C@]23C(=O)Nc2cc(Cl)ccc23)c1 [Ib-144] the IC50 was 8 nM.
Compound CCOc1cccc(CN2[C@H]3Cc4c(nc5c(C)c(C(=O)O)ccn45)[C@H]3[C@H](c3ccnc(Cl)c3F)[C@]23C(=O)Nc2cc(Cl)ccc23)c1 [Ic-27] has an IC50 of 13 nM.
For O=C(O)c1ccc2c3n(nc2c1)[C@@H]1[C@H](C3)N(CC2CC2)[C@@]2(C(=O)Nc3cc(Cl)ccc32)[C@H]1c1cccc(Cl)c1F [Ia-25], the IC50 was 2 nM.
Work on NC(=O)c1ccc2c(c1)nc1n2C[C@H]2[C@@H]1[C@H](c1cccc(Cl)c1F)[C@]1(C(=O)Nc3cc(Cl)ccc31)N2CC1CC1 [Ib-239] yielded an IC50 of 3 nM.
N#Cc1ccc2c(c1)NC(=O)[C@]21[C@@H](c2cccc(Cl)c2F)[C@@H]2c3nc4cc(C(=O)O)ccc4n3CC[C@@H]2N1CC1CC1 [Ib-152] showed an IC50 of 7 nM.
With CCCCCN1[C@H]2CCn3c(nc4cc(C(=O)O)ccc43)[C@H]2[C@H](c2cccc(Cl)c2F)[C@]12C(=O)Nc1cc(Cl)ccc12 [Ib-117] the IC50 was 8 nM.
In the case of CC(C)(O)CNC(=O)c1ccc2c3n(nc2c1)[C@@H]1[C@H](C3)N(CC2CCC2)[C@@]2(C(=O)Nc3cc(Cl)ccc32)[C@H]1c1cccc(Cl)c1F [Ia-46], the IC50 is reported as 8 nM.
For CC(C)=CCN1[C@H]2CCn3c(nc4cc(C(=O)O)ccc43)[C@H]2[C@H](c2cccc(Cl)c2F)[C@]12C(=O)Nc1cc(Cl)ccc12 [Ib-121], the IC50 was 11 nM.
Cc1cc2c(cc1C(=O)O)nc1n2CC[C@H]2[C@@H]1[C@H](c1cccc(Cl)c1F)[C@]1(C(=O)Nc3cc(Cl)ccc31)N2CC1CC1 [Ib-159] was tested, and the IC50 was 7 nM.
Compound COCc1cccc(CN2[C@H]3Cn4c(nc5cc(C(=O)O)ccc54)[C@H]3[C@H](c3cccc(Cl)c3F)[C@]23C(=O)Nc2cc(Cl)ccc23)c1 [Ib-184] has an IC50 of 2 nM.
CCOc1cccc(CN2[C@H]3Cc4c5ccc(C(=O)O)cc5nn4[C@H]3[C@H](c3cccc(Cl)c3F)[C@]23C(=O)Nc2cc(Cl)ccc23)c1 [Ia-32] showed an IC50 of 2 nM.
CCOc1cccc(CN2[C@@H]3CCn4c(nc5cc(C(=O)O)ccc54)[C@@H]3[C@@H](c3cccc(Cl)c3F)[C@@]23C(=O)Nc2cc(Cl)ccc23)c1 [Ib-141] was tested, and the IC50 was 48 nM.
Compound CS(=O)(=O)c1ccc2c(c1)nc1n2CC[C@H]2[C@@H]1[C@H](c1cccc(Cl)c1F)[C@]1(C(=O)Nc3cc(Cl)ccc31)N2CC1CC1 [Ib-57] has an IC50 of 12 nM.
Work on O=C(O)c1ccc2c(c1)nc1n2CC[C@H]2[C@@H]1[C@H](c1cccc(Cl)c1F)[C@]1(C(=O)Nc3cc(Cl)ccc31)N2CC1CC(F)(F)C1 [Ib-125] yielded an IC50 of 14 nM.
In the case of O=C(O)c1ccc2c(c1)nc1n2C[C@H]2[C@@H]1[C@H](c1cccc(Cl)c1F)[C@]1(C(=O)Nc3cc(Cl)ccc31)N2CC1CC1 [Ib-176], the IC50 is reported as 2 nM.
O=C(O)c1ccc2c3n(nc2c1)[C@@H]1[C@H](C3)N(CC2CCC2)[C@@]2(C(=O)Nc3cc(Cl)ccc32)[C@H]1c1cccc(Cl)c1F [Ia-26] was tested, and the IC50 was 4 nM.
Cc1c(C(=O)O)ccc2c1nc1n2CC[C@H]2[C@@H]1[C@H](c1ccnc(Cl)c1F)[C@]1(C(=O)Nc3cc(Cl)ccc31)N2CC1CC1 [Ib-207] was tested, and the IC50 was 8 nM.
For CN(C)CCNC(=O)c1ccc2c(c1)nc1n2CC[C@H]2[C@@H]1[C@H](c1cccc(Cl)c1F)[C@]1(C(=O)Nc3cc(Cl)ccc31)N2CC1CC1 [Ib-223], the IC50 was 5 nM.
Work on CCCCN1[C@H]2CCn3c(nc4cc(C(=O)O)ccc43)[C@H]2[C@H](c2cccc(Cl)c2F)[C@]12C(=O)Nc1cc(Cl)ccc12 [Ib-115] yielded an IC50 of 7 nM.
Compound CC(C)c1cc2c(cc1C(=O)O)nc1n2CC[C@H]2[C@@H]1[C@H](c1cccc(Cl)c1F)[C@]1(C(=O)Nc3cc(Cl)ccc31)N2CC1CC1 [Ib-162] has an IC50 of 6 nM.
COc1cc2c(cc1C(=O)O)nc1n2CC[C@H]2[C@@H]1[C@H](c1cccc(Cl)c1F)[C@]1(C(=O)Nc3cc(Cl)ccc31)N2CC1CC1 [Ib-157] was tested, and the IC50 was 2 nM.
For O=C1Nc2cc(Cl)ccc2[C@@]12[C@@H](c1cccc(Cl)c1F)[C@@H]1c3nc4ccccc4n3CC[C@@H]1N2CC1CC1 [Ib-253], the IC50 was 72 nM.
Work on O=C(O)c1ccc2c(c1)nc1n2CC[C@H]2[C@@H]1[C@H](c1cccc(Cl)c1F)[C@]1(C(=O)Nc3cc(Cl)ccc31)N2CC1CCCC1 [Ib-135] yielded an IC50 of 15 nM.
O=C(O)Cc1ccc2c(c1)nc1n2CC[C@H]2[C@@H]1[C@H](c1cccc(Cl)c1F)[C@]1(C(=O)Nc3cc(Cl)ccc31)N2CC1CC1 [Ib-169] showed an IC50 of 7 nM.
Work on CCCN1[C@H]2Cc3c4ccc(C(=O)O)cc4nn3[C@H]2[C@H](c2cccc(Cl)c2F)[C@]12C(=O)Nc1cc(Cl)ccc12 [Ia-29] yielded an IC50 of 2 nM.
CC(C)OCCN1[C@H]2CCn3c(nc4cc(C(=O)O)ccc43)[C@H]2[C@H](c2cccc(Cl)c2F)[C@]12C(=O)Nc1cc(Cl)ccc12 [Ib-129] gave an IC50 of 10 nM.
CCN1[C@H]2Cc3c4ccc(C(=O)O)cc4nn3[C@H]2[C@H](c2cccc(Cl)c2F)[C@]12C(=O)Nc1cc(Cl)ccc12 [Ia-30] showed an IC50 of 2 nM.
With CN(O)C(=O)c1ccc2c(c1)nc1n2CC[C@H]2[C@@H]1[C@H](c1cccc(Cl)c1F)[C@]1(C(=O)Nc3cc(Cl)ccc31)N2CC1CC1 [Ib-230] the IC50 was 10 nM.
Work on O=C(O)c1ccc2c(c1)nc1n2CC[C@H]2[C@@H]1[C@H](c1cccc(Cl)c1F)[C@]1(C(=O)Nc3cc(Cl)ccc31)N2CC1CCC1 [Ib-123] yielded an IC50 of 4 nM.
Compound O=C(O)c1ccc2c(c1)nc1n2C[C@H]2[C@@H]1[C@H](c1cccc(Br)c1F)[C@]1(C(=O)Nc3cc(Cl)ccc31)N2CC1CC1 [Ib-198] has an IC50 of 4 nM.
O=C(NC(CO)CO)c1ccc2c(c1)nc1n2CC[C@H]2[C@@H]1[C@H](c1cccc(Cl)c1F)[C@]1(C(=O)Nc3cc(Cl)ccc31)N2CC1CC1 [Ib-214] showed an IC50 of 3 nM.
